Results taken from patent US10947201B2, “Certain chemical entities, compositions, and methods” (NEUPHARMA, INC., priority 2015, dated 2021).

Legend:
[1] = molecular target: T1, EGFR (ErbB1) (Homo sapiens, UniProt P00533); experiment: Z'-LYTE kinase inhibition assay (Invitrogen), EGFR; format: biochemical; conditions: for inhibition at 0.041 µM: compound at 41 nM, 10 μM of ATP; for inhibition at 0.1 µM: compound at 100 nM, [ATP] = Km
T1 construct: purchased Invitrogen
Procedure: (§1) Inhibitory activities of compounds against BTK, EGFR and EGFR mutants (EGFR L858R/T790M) were measured by Invitrogen using Z′-LYTE® Method as briefly described in the following.
(§2) Test Compounds are screened in 1% DMSO (final) in the well. For 10 point titrations, 3-fold serial dilutions are conducted from the starting concentration. All ATP Solutions are diluted to a 4× working concentration in Kinase Buffer (50 mM HEPES pH 7.5, 0.01% BRIJ-35, 10 mM MgCl2, 1 mM EGTA). Peptide/Kinase Mixtures are diluted to a 2× working concentration in the appropriate Kinase Buffers as described below.
(i) Peptide/Kinase Mixtures for measurement of EGFR (ErbB1):
The 2×EGFR (ErbB1)/Tyr 04 mixture is prepared in 50 mM HEPES pH 7.5, 0.01% BRIJ-35, 10 mM MgCl2, 4 mM MnCl2, 1 mM EGTA, 2 mMDTT. The final 10 μL Kinase Reaction consists of 1.1-5.25 ng EGFR (ErbB1) and 2 μM Tyr 04 in 50 mM HEPES pH 7.5, 0.01% BRIJ-35, 10 mM MgCl2, 2 mM MnCl2, 1 mM EGTA, 1 mM DTT. After the 1 hour Kinase Reaction incubation, 5 μL of a 1:64 dilution of DevelopmentReagent B is added.
(§3) Reaction starts by 30-second shaking of mixture consisting of 2.5 μL 4× test compound, 5 μL 2× kinase reaction mixture and 2.5 μL 4×ATP Solution on Bar-coded Corning, low volume NBS, black 384-well plate (Corning Cat. #3676). Then the mixture is incubated for 60-minute at room temperature for the kinase reaction, followed by addition of 5 μL of a 1:1024 dilution of development reagent A and 30-second plate shake. The mixture is then incubated for another 60-minute at room temperature for development reaction. Finally fluorescence is read by plate reader. […] The scale utilized in Tables 2 and 3 is as follows: ++ more than 50% inhibition and + less than 50% inhibition.
(§4) To determine IC50 of a compound against EGFR or EGFR mutants, a series of concentrations of the compound were tested for the inhibition. IC50 was calculated by plotting the concentration of compound vs the percentage of inhibition in treated wells using GraphPad Prism 5. […] The scale utilized in Table 4 is as follows: ++ less than 100 nM and + greater than 100 nM.

[2] = molecular target: T2, EGFR (ErbB1) T790M L858R (Homo sapiens, UniProt P00533, L858R/T790M); experiment: Z'-LYTE kinase inhibition assay (Invitrogen), EGFR L858R/T790M; format: biochemical; conditions: for inhibition at 0.0137 µM: compound at 13.7 nM, 10 μM of ATP; for inhibition at 0.1 µM: compound at 100 nM, [ATP] = Km
T2 construct: purchased Invitrogen
T2 sequence (P00533 25-1210 T790M/L858R): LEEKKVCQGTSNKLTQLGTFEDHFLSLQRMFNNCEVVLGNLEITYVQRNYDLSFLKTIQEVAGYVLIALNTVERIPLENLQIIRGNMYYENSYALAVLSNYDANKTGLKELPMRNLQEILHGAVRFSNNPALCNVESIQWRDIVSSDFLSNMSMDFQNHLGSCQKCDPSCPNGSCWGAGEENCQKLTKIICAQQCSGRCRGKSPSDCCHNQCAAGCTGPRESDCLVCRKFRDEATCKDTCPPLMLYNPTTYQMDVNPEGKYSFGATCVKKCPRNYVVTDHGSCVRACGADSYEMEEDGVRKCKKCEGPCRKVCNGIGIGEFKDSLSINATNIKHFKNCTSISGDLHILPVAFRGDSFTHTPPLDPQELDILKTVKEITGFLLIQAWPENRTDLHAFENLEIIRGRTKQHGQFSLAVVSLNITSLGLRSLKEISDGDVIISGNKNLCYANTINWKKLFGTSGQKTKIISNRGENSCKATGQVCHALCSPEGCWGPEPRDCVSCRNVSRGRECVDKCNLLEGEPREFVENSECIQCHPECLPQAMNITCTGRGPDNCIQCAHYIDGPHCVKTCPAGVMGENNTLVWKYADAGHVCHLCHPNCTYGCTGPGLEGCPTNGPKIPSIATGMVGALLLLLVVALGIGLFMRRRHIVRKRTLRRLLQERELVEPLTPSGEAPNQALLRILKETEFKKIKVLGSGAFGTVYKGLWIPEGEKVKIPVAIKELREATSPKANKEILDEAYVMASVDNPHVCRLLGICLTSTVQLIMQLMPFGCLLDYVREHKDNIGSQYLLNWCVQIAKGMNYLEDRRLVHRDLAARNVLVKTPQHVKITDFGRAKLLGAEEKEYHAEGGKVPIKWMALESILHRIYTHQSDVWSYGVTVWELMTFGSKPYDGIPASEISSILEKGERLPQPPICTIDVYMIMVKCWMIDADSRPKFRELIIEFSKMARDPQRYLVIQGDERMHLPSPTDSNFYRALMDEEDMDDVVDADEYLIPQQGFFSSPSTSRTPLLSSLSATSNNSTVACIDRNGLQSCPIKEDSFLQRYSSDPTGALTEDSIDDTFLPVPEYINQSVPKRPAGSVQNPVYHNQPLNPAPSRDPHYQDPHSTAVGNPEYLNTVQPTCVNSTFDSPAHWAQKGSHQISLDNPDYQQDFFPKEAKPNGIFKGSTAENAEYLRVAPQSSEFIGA
Procedure: as §1, §2
(iv) Peptide/Kinase Mixtures for measurement of EGFR (ErbB1) T790M L858R:
The 2×EGFR (ErbB1) T790M L858R/Tyr 04 mixture is prepared in 50 mM HEPES pH 6.5, 0.01% BRIJ-35, 10 mM MgCl2, 1 mM EGTA, 0.02% NaN3. The final 10 μL Kinase Reaction consists of 0.38-4.22 ng EGFR (ErbB1) T790M L858R and 2 μM Tyr 04 in 50 mM HEPES pH 7.0, 0.01% BRIJ-35, 10 mM MgCl2, 1 mM EGTA, 0.01% NaN3. After the 1 hour Kinase Reaction incubation, 5 μL of a 1:64 dilution of Development Reagent B is added.
as §3, §4

[3] = molecular target: T3, BTK (Homo sapiens, UniProt Q06187); experiment: Z'-LYTE kinase inhibition assay (Invitrogen), BTK; format: biochemical; conditions: for inhibition at 0.1 µM: compound at 100 nM, [ATP] = Km; for inhibition at 0.041 µM: compound at 41 nM, 10 μM of ATP
T3 construct: purchased Invitrogen
T3 sequence (Q06187 whole entry): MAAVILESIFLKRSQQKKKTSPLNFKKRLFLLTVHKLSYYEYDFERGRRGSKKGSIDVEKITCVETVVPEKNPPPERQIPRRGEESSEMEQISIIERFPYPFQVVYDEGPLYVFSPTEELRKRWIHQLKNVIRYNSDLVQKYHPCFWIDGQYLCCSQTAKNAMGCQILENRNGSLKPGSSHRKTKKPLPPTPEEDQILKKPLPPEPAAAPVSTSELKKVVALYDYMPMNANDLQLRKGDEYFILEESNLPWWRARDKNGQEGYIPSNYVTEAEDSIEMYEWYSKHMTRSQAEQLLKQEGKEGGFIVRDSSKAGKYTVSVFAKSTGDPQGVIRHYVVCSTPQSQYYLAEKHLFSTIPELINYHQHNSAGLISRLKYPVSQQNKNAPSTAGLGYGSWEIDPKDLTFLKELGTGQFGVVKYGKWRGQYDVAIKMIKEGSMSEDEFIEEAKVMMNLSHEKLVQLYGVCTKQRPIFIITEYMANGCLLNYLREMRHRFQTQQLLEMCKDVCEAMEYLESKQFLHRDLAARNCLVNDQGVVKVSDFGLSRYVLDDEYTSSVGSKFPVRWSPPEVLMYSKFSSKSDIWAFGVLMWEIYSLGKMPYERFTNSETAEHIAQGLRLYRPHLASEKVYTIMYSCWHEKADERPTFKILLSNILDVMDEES
Procedure: as §1, §2
(v) Peptide/Kinase Mixtures for measurement of BTK:
The 2×BTK/Tyr 01 mixture is prepared in 50 mM HEPES pH 7.5, 0.01% BRIJ-35, 10 mM MgCl2, 1 mM EGTA. The final 10 μL Kinase Reaction consists of 1.04-10.4 ng BTK and 2 μM Tyr 01 in 50 mM HEPES pH 7.5, 0.01% BRIJ-35, 10 mM MgCl2, 1 mM EGTA. After the 1 hour Kinase Reaction incubation, 5 μL of a 1:256 dilution of Development Reagent B is added.
as §3, §4

[4] = tested on: H1975 cells; experiment: MTT cell growth inhibition assay, H1975; format: cell-based; conditions: Homo sapiens, NCI-H1975, H1975 cells (EGFR L858R/T790M), 72 h
Procedure: (§5) Inhibition of cell growth by compounds was measured using MTT assay (Mosmann, T., Journal of Immunological Methods, 1983, 65, 55-63). Tumor cell lines were purchased from ATCC (American Type Culture Collection, Manassas, Va.). All cell lines were maintained in RPMI 1640 (Hyclone) supplemented with 10% fetal bovine serum (FBS, Hyclone), glutamine (2 mM, Hyclone), and antibiotics (penicillin 100 U/mL and streptomycin 50 μg/mL) at 37° C. in a humidified atmosphere of 5% CO2 in air. Taxol (as a positive control, Sigma) and compounds were dissolved in DMSO (Sigma), and the final concentration of DMSO in the medium was 1%. Tumor cells were plated in 96-well plates at densities of about 4000 cells/well of a 96-well plate and allowed to adhere/grow for 24 h. They were then treated with various concentrations of drug for 72 h. 3-(4,5-Dimethylthiazol-2-yl)-2,5-diphenyltetrazolium bromide (MTT, Sigma) was used to determine the number of viable cells at the time of compound addition and the number of cells remaining after 72 h compound exposure. The number of cells remaining after 72 h was compared to the number of viable cells at the time of compound addition by measuring the absorbance at 570 nm, allowing for the calculation of growth inhibition.
(§6) All concentrations of compounds were tested in triplicate and controls were averaged over 4 wells. IC50 was calculated by plotting the concentration of compound vs the percentage of inhibition in treated wells using GraphPad Prism 5.
(§7) Tables 5 show IC50 values of several compounds of the invention in A549, A431, H1299, and H1975 human cancer cells. A549 cells have a mutation on KRAS, H3255 cells have L858R mutation, and H1975 cells have double EGFR mutations (L858R/T790M). The scale utilized in Table 5 is as follows: +++ less than 100 nM; ++ between 100 nM and 500 nM; and + greater than 500 nM.

[5] = tested on: A549 cells; experiment: MTT cell growth inhibition assay, A549; format: cell-based; conditions: Homo sapiens, A549 cells (KRAS mutation), 72 h
Procedure: as §5, §6, §7

T1 sequence (P00533 25-1210): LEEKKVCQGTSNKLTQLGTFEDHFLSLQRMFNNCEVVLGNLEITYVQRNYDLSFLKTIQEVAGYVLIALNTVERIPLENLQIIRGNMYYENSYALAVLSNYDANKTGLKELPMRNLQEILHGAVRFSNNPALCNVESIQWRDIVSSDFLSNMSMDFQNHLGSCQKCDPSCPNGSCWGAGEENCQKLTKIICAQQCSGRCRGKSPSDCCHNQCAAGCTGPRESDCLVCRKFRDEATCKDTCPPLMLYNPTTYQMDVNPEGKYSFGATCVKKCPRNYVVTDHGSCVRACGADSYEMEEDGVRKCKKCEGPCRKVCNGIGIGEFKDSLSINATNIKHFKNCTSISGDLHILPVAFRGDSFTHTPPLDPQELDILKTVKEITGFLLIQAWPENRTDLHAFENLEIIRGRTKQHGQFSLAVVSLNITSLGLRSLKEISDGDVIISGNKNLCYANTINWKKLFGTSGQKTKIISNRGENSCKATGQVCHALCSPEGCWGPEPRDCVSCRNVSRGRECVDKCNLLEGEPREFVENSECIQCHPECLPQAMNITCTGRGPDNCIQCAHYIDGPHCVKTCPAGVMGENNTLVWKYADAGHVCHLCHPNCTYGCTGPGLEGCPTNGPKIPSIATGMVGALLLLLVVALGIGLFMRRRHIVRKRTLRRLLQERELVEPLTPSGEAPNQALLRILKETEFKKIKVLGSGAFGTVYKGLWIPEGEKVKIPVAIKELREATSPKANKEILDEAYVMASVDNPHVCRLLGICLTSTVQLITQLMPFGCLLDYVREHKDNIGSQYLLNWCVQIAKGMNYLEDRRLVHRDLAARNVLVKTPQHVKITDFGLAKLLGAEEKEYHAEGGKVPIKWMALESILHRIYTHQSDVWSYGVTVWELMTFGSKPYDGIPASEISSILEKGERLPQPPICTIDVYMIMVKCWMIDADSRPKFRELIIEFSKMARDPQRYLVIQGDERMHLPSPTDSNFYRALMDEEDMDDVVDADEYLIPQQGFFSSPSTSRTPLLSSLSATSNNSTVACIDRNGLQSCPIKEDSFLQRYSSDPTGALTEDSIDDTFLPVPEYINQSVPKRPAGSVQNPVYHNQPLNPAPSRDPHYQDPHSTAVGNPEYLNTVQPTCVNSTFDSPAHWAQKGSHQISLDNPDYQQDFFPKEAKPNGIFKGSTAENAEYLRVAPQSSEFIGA

Row | SMILES | inhibition at 0.041 µM [1] [%] | inhibition at 0.1 µM [1] [%] | inhibition at 0.0137 µM [2] [%] | inhibition at 0.1 µM [2] [%] | inhibition at 0.1 µM [3] [%] | IC50 [4] [µM] | inhibition at 0.041 µM [3] [%] | IC50 [5] [µM]
1 | C=CC(=O)Nc1cc(Nc2ncc3cccc(-c4cccc(Cl)c4)c3n2)ccc1OC1CCN(C)CC1 [Example C013, N-(5-((8-(3-chlorophenyl)quinazolin-2-yl)amino)-2-((1-methylpiperidin-4-yl)oxy)phenyl)acrylamide] | < 50 | < 50 | > 50 | < 50 | > 50 | 0.1 to 0.5 |  | 
2 | C=CC(=O)Nc1cc(Nc2ncc3cccc(Br)c3n2)ccc1N(C)CCN(C)C [Example C001, N-(5-((8-bromoquinazolin-2-yl)amino)-2-((2-(dimethylamino)ethyl)(methyl)amino)phenyl) acrylamide] |  |  | < 50 |  |  | < 0.1 |  | 
3 | C=CC(=O)Nc1cc(Nc2ncc3cccc(-c4ccccc4Cl)c3n2)ccc1N(C)CCN(C)C [Example C008, N-(5-((8-(2-chlorophenyl)quinazolin-2-yl)amino)-2-((2-(dimethylamino)ethyl)(methyl)amino)phenyl) acrylamide] | < 50 | < 50 | > 50 | < 50 | > 50 | 0.1 to 0.5 | > 50 | 0.1 to 0.5
4 | C=CC(=O)Nc1cc(Nc2ncc3cccc(-c4cccc(Cl)c4)c3n2)ccc1OCCN(C)C [Example C012, N-(5-((8-(3-chlorophenyl)quinazolin-2-yl)amino)-2-(2-(dimethylamino)ethoxy)phenyl)acrylamide] | < 50 | < 50 | > 50 | < 50 | > 50 | < 0.1 |  | 
5 | C=CC(=O)Nc1cc(Nc2ncc3cccc(-c4cccnc4)c3n2)ccc1N(C)CCN(C)C [Example C010, N-(2-((2-(dimethylamino)ethyl)(methyl)amino)-5-((8-(pyridin-3-yl)quinazolin-2-yl)amino)phenyl)acrylamide] | < 50 | < 50 | < 50 | < 50 | > 50 | 0.1 to 0.5 | > 50 | 
6 | C=CC(=O)Nc1cc(Nc2ncc3cccc(-c4cccc(Cl)c4)c3n2)ccc1OCCOC [Example C015, N-(5-((8-(3-chlorophenyl)quinazolin-2-yl)amino)-2-(2-methoxyethoxy)phenyl)acrylamide] | < 50 | < 50 | < 50 | < 50 | < 50 | > 0.5 |  | 
7 | C=CC(=O)Nc1cc(Nc2ncc3cccc(-c4cccc(Cl)c4)c3n2)ccc1N1CCN(C)CC1 [Example C011, N-(5-((8-(3-chlorophenyl)quinazolin-2-yl)amino)-2-(4-methylpiperazin-1-yl)phenyl)acrylamide] | < 50 | < 50 | < 50 | < 50 | > 50 | < 0.1 |  | 
8 | C=CC(=O)Nc1cc(Nc2ncc3cccc(-c4cncc(Cl)c4)c3n2)ccc1N(C)CCN(C)C [Example C021] |  | < 50 |  | > 50 | > 50 | < 0.1 |  | 
9 | C=CC(=O)Nc1cc(Nc2ncc3cccc(-c4ccncc4)c3n2)ccc1N(C)CCN(C)C [Example C007, N-(2-((2-(dimethylamino)ethyl)(methyl)amino)-5-((8-(pyridin-4-yl)quinazolin-2-yl)amino)phenyl)acrylamide] | < 50 | < 50 | < 50 | < 50 | > 50 | < 0.1 | > 50 | 
10 | C=CC(=O)Nc1cc(Nc2ncc3cccc(-c4ccccc4F)c3n2)ccc1N(C)CCN(C)C [Example C009, N-(2-((2-(dimethylamino)ethyl)(methyl)amino)-5-((8-(2-fluorophenyl)quinazolin-2-yl)amino)phenyl)acrylamide] | < 50 | < 50 | > 50 | < 50 | > 50 | < 0.1 | > 50 | 
11 | C=CC(=O)Nc1cc(Nc2ncc3cccc(-c4ccccc4Cl)c3n2)ccc1OCCN(C)C [Example C014, N-(5-((8-(2-chlorophenyl)quinazolin-2-yl)amino)-2-(2-(dimethylamino)ethoxy)phenyl)acrylamide] | < 50 | < 50 | < 50 | < 50 | > 50 | < 0.1 |  | 
12 | C=CC(=O)N1CCC(n2cnc3cnc(Nc4ccc(N5CCN(C)CC5)c(F)c4F)nc32)C1 (centres unmarked) [Example A011, 1-(3-(2-((2,3-difluoro-4-(4-methylpiperazin-1-yl)phenyl)amino)-9H-purin-9-yl)pyrrolidin-1-yl)prop-2-en-1-one] |  | < 50 |  | < 50 | < 50 |  |  | 
13 | C=CC(=O)Nc1cc(Nc2ncc3cccc(-c4cccc(Cl)c4)c3n2)ccc1N1CCOCC1 [Example C016, N-(5-((8-(3-chlorophenyl)quinazolin-2-yl)amino)-2-morpholinophenyl)acrylamide] | < 50 | < 50 | < 50 | < 50 | < 50 | < 0.1 |  | 
